According to publication PMC6344423, “Opposing Actions of Adrenocorticotropic Hormone and Glucocorticoids on UCP1-Mediated Respiration in Brown Adipocytes” (Frontiers in Physiology, 2019):

Key:
[1] = test system: primary brown adipocytes of UCP1^-/-; assay: Respirometry in primary brown adipocytes of UCP1^-/- mice; assay type: cell-based, mouse; conditions: ACTH 1 μM, n = 3, Figure 2G
Description: Oxygen consumption of primary brown adipocytes was measured at 37°C using microplate-based respirometry (XF96 extracellular flux analyzer, Seahorse Bioscience) as described previously ([Li et al., 2014b]) following the subsequent protocol at day 7 of differentiation. Prior to the respiration measurement, primary cells were washed with warmed, unbuffered assay medium (DMEM basal medium supplemented with 25 mM glucose, 31 mM NaCl, 2 mM GlutaMax and 15 mg/l phenol red, pH 7.4) (basal assay medium). Subsequent to the medium replacement with basal assay medium containing 1–2% essentially fatty acid free bovine serum albumin (BSA), cells were incubated at 37°C in a CO2-free incubator for 1 h. Assay reagents were loaded into the drug injections ports of the sensor cartridges at 10X in basal assay medium (no BSA). After assessment of basal oxygen consumption in untreated cells oligomycin (5 μM) was injected to inhibit coupled respiration and to determine basal leak respiration. […] By the addition of FCCP (1 μM) maximal respiratory capacity was determined. Lastly, non-mitochondrial oxygen consumption was assessed by blocking mitochondrial respiration with antimycin A (5 μM). […] Oxygen consumption rates were automatically calculated by the Seahorse XF-96 software. […] Results are predominately expressed as stimulated respiration which is calculated as fold increase of basal leak.

[2] = test system: Ucp1 gene expression in primary brown adipocytes of Ucp1^ki/ki mice; assay: Luciferase assay, FLUC activity as surrogate for Ucp1 expression; assay type: cell-based, mouse; conditions: overnight stimulation, normalized to total protein content, n = 3, Figure 1D
Description: After overnight stimulation of primary brown adipocytes of Ucp1^ki/ki mice luciferase activity was assayed using a commercial kit system (Luciferase Assay System Freezer Pack E4030, Promega GmbH). Primary cells were lysed in 1x reporter lysis buffer by shaking for 20 min at room temperature. 10 μl lysate was mixed with 50 μl luciferase assay substrate solution, and the mixture was measured by FB12 in a luminometer (Single Tube Luminometer, Titertek-Berthold GmbH). Bioluminescence readouts were normalized to total protein content.
We then measured FLUC activity in primary brown adipocytes from Ucp1^ki/ki reporter gene mice to determine the effect of the GsPCR ligands on Ucp1 gene expression in response to overnight stimulation. As the expression of Fluc in these cells is driven by Ucp1promoter, FLUC activity served as a surrogate for Ucp1 expression.

[3] = test system: cytosolic cAMP in primary brown adipocytes; assay: Quantification of cellular cAMP (cAMP-Glo Assay); assay type: cell-based, mouse
Description: Changes in cytosolic cAMP concentrations were determined in primary brown adipocytes in response to ACTH- or isoproterenol stimulation using cAMP-Glo Assay (Promega) following the manufacturer’s instructions.

[4] = test system: Ucp1 mRNA in primary brown adipocytes; assay: Ucp1 gene expression analysis (qRT-PCR), brown adipocytes; assay type: cell-based, mouse
Description: (§1) Total RNA was isolated using Trisure (Bioline) and purified with SV total RNA Isolation System (Promega). Reverse transcriptase reactions were performed using SensiFAST cDNA Synthesis Kit (Bioline). Quantitative real-time PCR (qRT-PCR) was performed with SYBR green fluorescent dye in 384-well format using LightCycler 480 (Roche). General Transcription Factor IIB (Gtf2b) served as an internal control. To be able to calculate relative gene expression levels of samples, standard reactions containing serial diluted pooled cDNA of all samples (Pure, 1:2, 1:4, 1:8, 1:16, 1:32 and 1:64) as a template were used to establish a standard curve. The RNA abundance of Ucp1 gene was normalized to the housekeeping gene Gtf2b. The following primers were used: […]

primary brown adipocytes = assay: Microplate-based respirometry (XF96), UCP1-mediated uncoupled respiration; assay type: cell-based, mouse
Description: Oxygen consumption of primary brown adipocytes was measured at 37°C using microplate-based respirometry (XF96 extracellular flux analyzer, Seahorse Bioscience) as described previously ([Li et al., 2014b]) following the subsequent protocol at day 7 of differentiation. Prior to the respiration measurement, primary cells were washed with warmed, unbuffered assay medium (DMEM basal medium supplemented with 25 mM glucose, 31 mM NaCl, 2 mM GlutaMax and 15 mg/l phenol red, pH 7.4) (basal assay medium). Subsequent to the medium replacement with basal assay medium containing 1–2% essentially fatty acid free bovine serum albumin (BSA), cells were incubated at 37°C in a CO2-free incubator for 1 h. Assay reagents were loaded into the drug injections ports of the sensor cartridges at 10X in basal assay medium (no BSA). After assessment of basal oxygen consumption in untreated cells oligomycin (5 μM) was injected to inhibit coupled respiration and to determine basal leak respiration. Next, effector was added to investigate UCP1-dependant uncoupled respiration. By the addition of FCCP (1 μM) maximal respiratory capacity was determined. Lastly, non-mitochondrial oxygen consumption was assessed by blocking mitochondrial respiration with antimycin A (5 μM). For some experiments, cells were pretreated for 1 h with 50 μM H89 (PKA inhibitor), 1–100 μM propranolol (β-adrenergic receptor antagonist), 40 μM Atglistatin (ATGL inhibitor) and 40 μM Hi76-0079 (HSL inhibitor) 1 h prior to the measurement. Oxygen consumption rates were automatically calculated by the Seahorse XF-96 software. Each experiment was repeated at least three times with similar results and five to eight replicate wells for every condition in each independent experiment. Results are predominately expressed as stimulated respiration which is calculated as fold increase of basal leak.
In our first screen, we tested whether these GsPCR ligands can activate oxygen consumption acutely in brown adipocytes. UCP1-mediated uncoupled respiration was quantified in cultured adherent intact primary brown adipocytes, according to a protocol established in our lab ([Li et al., 2014b]). After recording basal respiration and the fraction of coupled and uncoupled respiration, UCP1-dependent respiration was measured. Finally, maximal respiratory capacity and non-mitochondrial oxygen consumption were assessed by adding the uncoupling agent carbonyl cyanide 4-(trifluoromethoxy) phenylhydrazone (FCCP) and antimycin A was added to block the electron transport chain, respectively. All respiration assays were performed in the presence of BSA to buffer free fatty acid (FFA) levels in the respiration medium.

T37i cells = conditions: ref Iwen et al., 2008, van den Beukel et al., 2014; cited from earlier work
From the text: (§2) The melanocortins ACTH and α-MSH are known for their lipolytic action in rodent adipocytes, as first reported in 1958 ([Lafontan, 2012]; [Braun et al., 2018]). […] ACTH enhanced BAT function in obese rats ([York and Al-Baker, 1984]), and increased glucose transport and respiration in isolated brown adipocytes ([Marette and Bukowiecki, 1990]) via fatty acid activation of mitochondrial uncoupled respirati ...

BAT = conditions: supraphysiological dose, 15 μM ACTH; ref van den Beukel et al., 2014; cited from earlier work
From the text: as §2

[5] = test system: immortalized murine adipocytes; conditions: ref Iwen et al., 2008, van den Beukel et al., 2014; cited from earlier work
From the text: as §2

[6] = test system: Ucp1 mRNA in primary white adipocytes; assay: Ucp1 gene expression analysis (qRT-PCR), white adipocytes; assay type: cell-based, mouse; conditions: two different doses of ACTH, iWAT adipocytes, normalized to Gtf2b, n = 4, Figure 3B
Description: as §1

[7] = dose–response experiment, Figure 2A

ACTH: Murine ACTH(1-39), 39 amino acid peptide hormone, ligand for the melanocortin 2 receptor (MC2R) (SYSMEHFRWGKPVGKKRRPVKVYPNVAENESAEAFPLEF; Corticotropin; UniProt P01193 124-162, looked up)
ACTH-stimulated respiration in UCP1^-/- compared to UCP1^+/+ cells [1]: attenuated in primary brown adipocytes of UCP1^-/- | FLUC (luciferase) activity as surrogate for Ucp1 expression [2]: moderate rise in FLUC activity | Cytosolic cAMP levels after ACTH stimulation ([3]; increasing concentrations, 30 min, n = 3, Figure 2D): dose-dependent increase of cytosolic cAMP levels | EC50 ([3]; stimulation for 30 min, n = 3, non-linear regression, Figure 2D): 1490 nM | Maximal induction of Ucp1 mRNA relative to ISO ([4]; 1 μM ACTH vs ISO 500 nM, Figures 3A,B): comparable to the effect of ISO treatment | Ucp1 mRNA levels, differentiated brown adipocytes ([4]; two different doses of ACTH, normalized to Gtf2b, n = 4, Figure 3A): dose-dependent increase in Ucp1 mRNA levels | ACTH concentration that stimulated respiration (fold increase over basal leak respiration) (primary brown adipocytes; [7]): 200 nM | ACTH concentration with the most robust effect on stimulated respiration (primary brown adipocytes; [7]): 1 µM | Stimulated respiration (UCP1-dependent uncoupled respiration) as fold increase of basal leak respiration, GsPCR ligand screen (primary brown adipocytes; primary brown adipocytes (129S6 mice), acute addition after oligomycin 5 μM, medium with 1–2% fatty acid free BSA, 37°C, n = 5, Figures 1B,C): most prominent induction of UCP1-dependant uncoupled respiration | ACTH concentration at which adipocytes respond in cell culture (T37i cells): 50 nM | Glucose uptake into BAT (BAT): increased glucose uptake into BAT | ACTH concentration at which adipocytes respond in cell culture [5]: 100 nM | Ucp1 mRNA levels, differentiated white adipocytes [6]: dose-dependent increase in Ucp1 mRNA levels
